Experimental data as given in US20110071178A1, “Methods and Compounds for Modulating Cannabinoid Activity” (Northeastern University, priority 2007, published 2011).

What was measured:
MGL = biological target: T1, MGL (Rattus norvegicus, UniProt Q8R431); settings: 100 µM
T1 sequence (Q8R431 1-303): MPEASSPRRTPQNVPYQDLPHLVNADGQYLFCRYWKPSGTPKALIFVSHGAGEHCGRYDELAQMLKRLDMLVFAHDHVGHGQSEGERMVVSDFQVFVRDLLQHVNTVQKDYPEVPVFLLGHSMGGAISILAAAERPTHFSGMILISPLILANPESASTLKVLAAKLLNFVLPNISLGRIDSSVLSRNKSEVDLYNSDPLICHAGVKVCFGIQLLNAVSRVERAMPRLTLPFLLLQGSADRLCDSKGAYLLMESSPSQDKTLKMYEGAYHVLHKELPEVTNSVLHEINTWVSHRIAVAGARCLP

melting point [°C] | inhibition (MGL) [%] | Structure (SMILES)
33 to 35 | – | O=S(=O)(Cl)CCCCCCCc1ccc(OCc2ccccc2)cc1 [Compound 12.1, 7-(4-Benzyloxy-phenyl)-heptanesulfonyl chloride]
58 to 60 | – | O=S(=O)(Cl)CCCCCc1ccc(OCc2ccccc2)cc1 [Compound 12.4, 5-(4-Benzyloxy-phenyl)-pentanesulfonyl chloride]
32 to 35 | – | O=S(=O)(F)CCCCCc1ccc(O)cc1 [Compound 14.4, 5-(4-Hydroxy-phenyl)-pentanesulfonyl fluoride]
– | 44 | CCOC(=O)NCc1ccc(Br)cc1 [Compound 57.1]
